In publication PMC12298351, “Novel 3,19-(N-Phenyl-3-(4-fluorophenyl)-pyrazole) Acetal of Andrographolide Promotes Cell Cycle Arrest and Apoptosis in MDA-MB-231 Breast Cancer Cells” (Pharmaceuticals, 2025):

Tests used:
UACC-257 = settings: UACC-257, Melanoma
UACC-62 = settings: UACC-62, Melanoma
SF-539 = settings: SF-539, CNS
MOLT-4 = settings: MOLT-4, Leukemia
SK-OV-3 = settings: SK-OV-3, Ovarian
HCT-15 = settings: HCT-15, Colon
U251 = settings: U251, CNS
[1] = DPPH radical scavenging assay; settings: 25 µM test compound, 0.1 mM DPPH, acetonitrile, 30 min
Method: A stable free radical DPPH (2,2-Diphenyl-1-picrylhydrazyl) assay was employed to test the antioxidant activity of all the synthesized compounds. Concisely, 25 µM of the test compounds were dissolved in acetonitrile and combined with 0.1 mM of DPPH (in acetonitrile) in a 1:2 ratio (80 µL and 160 µL). Then, the mixture was left undisturbed in the dark for 30 min at room temperature. After 30 min, the absorbance of the solutions was instantly measured at 517 nm using a Varioskan Multiplate Reader (Thermo Fisher Scientific, Mumbai, India). Ascorbic acid (in acetonitrile) was used as the positive control, and andrographolide and isoandrogapholide (in acetonitrile) were used as the standards. The following equation was used to determine the DPPH radical scavenging activity:% Radical scavenging activity = (Ac − As)/Ac × 100 where Ac = the absorbance of the blank (DPPH solution), and As = the absorbance of the test samples

OVCAR-3 = settings: OVCAR-3, Ovarian
COLO 205 = settings: COLO 205, Colon
MDA-MB-468 = settings: MDA-MB-468, Breast
HCT-116 = assay type: cell-based; settings: HCT-116, Colon
DU-145 = settings: DU-145, Prostate
PC-3 = settings: PC-3, Prostate
OVCAR-5 = settings: OVCAR-5, Ovarian
K-562 = settings: K-562, Leukemia
SK-MEL-28 = settings: SK-MEL-28, Melanoma
MALME-3M = settings: Melanoma
OVCAR-4 = assay type: cell-based; settings: OVCAR-4, Ovarian
HT29 = settings: HT29, Colon
M14 = assay type: cell-based; settings: M14, Melanoma
RPMI-8226 = settings: RPMI-8226, Leukemia
OVCAR-8 = settings: OVCAR-8, Ovarian
[2] = read-out: 50% lethal concentration (LC50)

`C=C1CCC2C3(C)COC(c4cn(-c5ccccc5)nc4-c4ccc(F)cc4)OC3CCC2(C)C1CC=C1C(=O)OCC1O` (centres unmarked) [1f, 3,19-(N-Phenyl-3-(4-fluorophenyl)-pyrazole) Acetal of Andrographolide] showed a GI50 (UACC-257) of 1.65 µM, a Total growth inhibition (TGI) (UACC-257) of 3.18 µM and a GI50 (UACC-62) of 1.58 µM. The Total growth inhibition (TGI) (UACC-62) was 3.09 µM, the CC50 (UACC-62; [2]) was 6.05 µM and the GI50 (SF-539) was 1.77 µM. For the same compound, the Total growth inhibition (TGI) (SF-539) was 3.16 µM, the CC50 (SF-539; [2]) was 5.65 µM and the GI50 (MOLT-4) was 0.6 µM. For the same compound, the CC50 (MOLT-4; [2]) was over 100 µM, the GI50 (NCI/ADR-RES; Ovarian) was 1.54 µM and the Total growth inhibition (TGI) (NCI/ADR-RES; Ovarian) was 3.57 µM. The CC50 (NCI/ADR-RES; read-out: 50% lethal concentration (LC50), Ovarian) was 8.29 µM, the GI50 (SK-OV-3) was 1.88 µM and the Total growth inhibition (TGI) (SK-OV-3) was 5.48 µM. The CC50 (SK-OV-3; [2]) was 30.7 µM, the GI50 (HCT-15) was 1.61 µM and the Total growth inhibition (TGI) (HCT-15) was 3.18 µM. The CC50 (HCT-15; [2]) was 6.28 µM, the GI50 (U251) was 2.36 µM and the Total growth inhibition (TGI) (U251) was 5.63 µM. It also gave a GI50 (LOX IMVI; Melanoma) of 1.32 µM, a Total growth inhibition (TGI) (LOX IMVI; Melanoma) of 2.59 µM and a CC50 (LOX IMVI; read-out: 50% lethal concentration (LC50), Melanoma) of 5.09 µM. For the same compound, the “% DPPH radical scavenging activity” value [1] was 58.15%, the GI50 (OVCAR-3) was 2.02 µM and the Total growth inhibition (TGI) (OVCAR-3) was 3.71 µM. It also gave a CC50 (OVCAR-3; [2]) of 6.79 µM, a GI50 (COLO 205) of 1.48 µM and a Total growth inhibition (TGI) (COLO 205) of 3.2 µM. For the same compound, the GI50 (MDA-MB-468) was 1.53 µM, the Total growth inhibition (TGI) (MDA-MB-468) was 2.96 µM and the CC50 (MDA-MB-468; [2]) was 5.71 µM. The Total growth inhibition (TGI) (A549/ATCC; Non-Small Cell Lung) was 5.92 µM, the GI50 (A549/ATCC; Non-Small-Cell Lung) was 2.14 µM and the CC50 (A549/ATCC; read-out: 50% lethal concentration (LC50), Non-Small Cell Lung) was 51.5 µM. It also gave a Total growth inhibition (TGI) (NCI-H23; NCI-H23, Non-Small Cell Lung) of 3.32 µM, a GI50 (NCI-H23; NCI-H23, Non-Small-Cell Lung) of 1.7 µM and a CC50 (NCI-H23; read-out: 50% lethal concentration (LC50), NCI-H23, Non-Small Cell Lung) of 6.46 µM. It also gave a GI50 (HCT-116) of 0.39 µM, a Total growth inhibition (TGI) (HCT-116) of 1.18 µM and a GI50 (DU-145) of 1.82 µM. It also gave a Total growth inhibition (TGI) (DU-145) of 3.44 µM, a CC50 (DU-145; [2]) of 6.52 µM and a GI50 (PC-3) of 1.55 µM. The Total growth inhibition (TGI) (PC-3) was 4.04 µM, the CC50 (PC-3; [2]) was over 100 µM and the GI50 (OVCAR-5) was 1.74 µM. It also gave a Total growth inhibition (TGI) (OVCAR-5) of 3.88 µM, a CC50 (OVCAR-5; [2]) of 8.66 µM and a Total growth inhibition (TGI) (NCI-H522; NCI-H522, Non-Small Cell Lung) of 3.82 µM. For the same compound, the GI50 (NCI-H522; NCI-H522, Non-Small-Cell Lung) was 1.95 µM, the CC50 (NCI-H522; read-out: 50% lethal concentration (LC50), NCI-H522, Non-Small Cell Lung) was 7.48 µM and the GI50 (K-562) was 2.34 µM. The Total growth inhibition (TGI) (K-562) was over 100 µM, the CC50 (K-562; [2]) was over 100 µM and the GI50 (SK-MEL-28) was 1.66 µM. For the same compound, the Total growth inhibition (TGI) (SK-MEL-28) was 3.12 µM, the CC50 (SK-MEL-28; [2]) was 5.86 µM and the GI50 (MALME-3M) was 1.58 µM. The Total growth inhibition (TGI) (MALME-3M) was 3.02 µM, the GI50 (OVCAR-4) was 1.75 µM and the Total growth inhibition (TGI) (OVCAR-4) was 4.08 µM. It also gave a GI50 (HT29) of 2.38 µM, a Total growth inhibition (TGI) (HT29) of 7.63 µM and a CC50 (HT29; [2]) of 93.9 µM. For the same compound, the GI50 (M14) was 1.5 µM, the Total growth inhibition (TGI) (M14) was 3.23 µM and the GI50 (RPMI-8226) was 0.49 µM. It also gave a Total growth inhibition (TGI) (RPMI-8226) of over 100 µM, a CC50 (RPMI-8226; [2]) of over 100 µM and a GI50 (OVCAR-8) of 1.48 µM. For the same compound, the Total growth inhibition (TGI) (OVCAR-8) was 2.95 µM and the CC50 (OVCAR-8; [2]) was 5.86 µM.
